SMILES strings stand for the structures.

The text below walks through data of EP3349734B1, “USE OF SOLUBLE AND INSOLUBLE FRACTIONS OF A CYCLODEXTRIN POLYMER AND OF MIXTURES THEREOF AS AN EXCIPIENT IN A TABLET” (Université de Lille, priority 2015, dated 2017).

What all share (assay type): physicochemical
The nature of data set [1]: Tablet breaking strength (hardness), 5 mm / 100 mg tablets. Conditions: no active ingredient, no other additive. An excerpt:
La machine à comprimer alternative utilisée était une Korsch (Allemagne) équipé de poinçon plat cylindrique de diamètre 5 mm. Les étapes de compression étaient les suivantes: (1) le remplissage de la matrice par écoulement du mélange, (2) arasage, (3) compression et (4) éjection du comprimé. L'épaisseur moyenne des comprimés est de 3,2 mm.
Cet essai est destiné à déterminer, dans des conditions définies, la résistance à la rupture des comprimés, mesurée par la force nécessaire pour les rompre par écrasement entre deux mâchoires.
L'appareil utilisé (PTB 311E, Pharma test Instruments, Inde) est constitué de deux mâchoires se faisant face, dont l'une se déplace vers l'autre qui est fixe. Les surfaces planes des mâchoires sont perpendiculaires à la direction de déplacement.
Le mode opératoire consistait à mettre en place le comprimé à plat entre les mâchoires, puis, une mâchoire se déplaçait à vitesse constante pour appliquer une force jusqu'à la rupture du comprimé. Cette force maximale est notée et considérée comme la dureté du comprimé. La façon dont un comprimé se fracture quand une force croissante est appliquée varie considérablement selon les diverses caractéristiques des produits.

Data set [2] can be described thus: Phase-solubility diagram of ibuprofène with cyclodextrins or soluble polymer fractions. Conditions: calculated from slope and So of the solubility diagram. As to the method: (§1) Les diagrammes de solubilité de plusieurs principes actifs ont été effectués en présence de cyclodextrines et de fractions solubles de polymères de cyclodextrine mentionnés à l'exemple 1.
(§2) Des solutions de concentration croissante de cyclodextrines et fractions solubles de polymères de cyclodextrine ont été préparées dans de l'eau ultrapure [0-70 g/L]. 10 mL de chacune des solutions ont été mis en présence d'un excès du principe actif (20 mg) sous agitation pendant 24 heures à température ambiante. Les solutions ont ensuite été filtrées avec une membrane en cellulose et en Nylon (0,45 µm; VWR International, USA) respectivement pour l'Ibuprofène et le Piroxicam. L'ibuprofène a été dosé par HPLC (Shimadzu LC-2010 HT Liquid Chromatography), la phase mobile de l'ibuprofène est un mélange acétonitrile/eau (60:40) avec un pH de 2,25, une colonne C18 a été utilisée. Le piroxicam a été dosé par spectrophotométrie UV-Vis à 356 nm (UV 1800 Shimadzu).
(§3) La constante de stabilité (K1:1) est utilisée pour comparer l'affinité de principes actifs pour différentes cyclodextrines ou dérivés. La solubilité totale de médicament (St) en solution aqueuse de cyclodextrine sera : [formula]
(§4) So = solubilité intrinsèque du médicament; [CD]1 = concentration totale en cyclodextrine dans le milieu aqueux
(§5) Une parcelle de St rapport [CD] t, selon l'équation (1), donnera une ligne droite avec une pente (K 1:1 So / (1 + K 1:1 So)) et une interception (Sint) égale à So. K 1:1 est calculée à partir de la pente et So : [formula]
Afin de pouvoir faire une comparaison directe entre cyclodextrine monomère et cyclodextrine polymérisée, les diagrammes de solubilité sont présentés en fonction de la concentration rapportée en gramme de monomère de cyclodextrine par litre. Tableau 3 : Solubilité de l'ibuprofène et constantes de complexation en présence des cyclodextrines ou de fractions solubles de polymères de cyclodextrine à 10 et 50 g/L en cyclodextrine. L'utilisation de cyclodextrines sous forme de monomères ne tombe pas sous l'étendue de la protection revendiquée.

Data set [3] can be described thus: Tapped density, Carr compressibility index and flow of the powder. Conditions: for TAP (Ic^∗): Carr index after 500 taps. As to the method: Densité après tassement et indice de compressibilité de la composition compressible.
L'appareil utilisé est un appareil de tassement (Engelsmann powder tester, PTTD200, Pharma Test Instruments, India) composé d'une éprouvette graduée de 100 mL sur un socle vibrant. Les manipulations ont été réalisées suivant les conditions décrites dans la pharmacopée européenne (1997). Pour chaque poudre, le volume initial avant tassement est mesuré (V0) permettant de calculer la densité p0. Le volume final (Vf) de la poudre est ensuite mesuré après 500 tassements. La densité finale de la poudre après tassement peut ainsi être calculée (pf). On en déduit également l'indice de compressibilité ou Indice de Carr (Ic) donné par la formule suivante : [formula]
Les poudres ayant un indice de Carr inférieur à 20% présentent un bon écoulement.

A short description of data set [4]: Hygroscopicity: water vapour sorption/desorption isotherm (TGA Q5000 SA, 25°C, up to 98% RH). Conditions: up to 98% relative humidity. As to the method: Les mesures d'absorption et de désorption d'eau des polymères ont été réalisées à l'aide d'un analyseur thermogravimétrique SA Q5000 de TA Instruments contenant une microbalance dans lequel des creusets contenant l'échantillon et la référence ont été enfermés dans une chambre à humidité et température contrôlées. La température dans le Q5000 SA a été contrôlée par des éléments Peltier. Un gaz sec de N2 (200 mL/min) a été divisé en deux parties, dont une partie a été humidifiée par passage dans une chambre saturée d'eau. L'humidité relative souhaitée (RH) pour les mesures peut ainsi être obtenue par mélange des proportions appropriées (régulées par les contrôleurs de débit massique) de flux sec et humide.
La mesure de l'isotherme standard est composée d'un certain nombre d'étapes. Premièrement, l'échantillon a été séché à 60°C et 0% d'humidité relative pendant un temps déterminé jusqu'à ce que la variation de poids soit stabilisée à moins de 0,05%. Dans un second temps, la température a été abaissée à 25°C. L'humidité a ensuite été augmentée progressivement (par pas de 2% d'humidité relative) à un maximum de 98% d'humidité relative. La variation de poids de l'échantillon a été stabilisée après chaque étape jusqu'à ce qu'elle soit inférieure à 0,05%. L'isotherme de désorption de l'eau a également été mesurée. […]

Data set [5] in a line: Tablet disintegration time in water. Conditions: 100 mg tablets. The protocol:
L'appareil utilisé était un appareil de désintégration manuelle PTZ-S, Pharma Test Instruments (Inde), composé d'un panier porte-tubes, un vase cylindrique bas de 1000 mL destiné à contenir le fluide d'immersion, un agencement thermostatique pour chauffer le fluide entre 35°C et 39°C, et d'un dispositif servant à imprimer au porte-tubes, dans le liquide d'immersion, un mouvement vertical alternatif. Le panier est composé de six tubes transparents verticaux, ouverts à leur extrémité supérieure et fermés à l'extrémité inférieure par une grille, un comprimé était placé dans chacun des six tubes du panier. Le fluide d'immersion était l'eau.
Le temps de désintégration a été déterminé comme le temps nécessaire pour que les comprimés passent à travers les mailles de la grille.

Data set [6] in a line: Phase-solubility diagram of piroxicam with cyclodextrins or soluble polymer fractions. Conditions: calculated from slope and So of the solubility diagram. The protocol:
as §1, §2, §3, §4, §5

Regarding `OC[C@H]1O[C@@H]2O[C@H]3[C@H](O)[C@@H](O)[C@@H](O[C@H]4[C@H](O)[C@@H](O)[C@@H](O[C@H]5[C@H](O)[C@@H](O)[C@@H](O[C@H]6[C@H](O)[C@@H](O)[C@@H](O[C@H]7[C@H](O)[C@@H](O)[C@@H](O[C@H]8[C@H](O)[C@@H](O)[C@@H](O[C@H]1[C@H](O)[C@H]2O)O[C@@H]8CO)O[C@@H]7CO)O[C@@H]6CO)O[C@@H]5CO)O[C@@H]4CO)O[C@@H]3CO` [βCD, β-cyclodextrine], the “Résistance à la rupture” value in data set [1] is recorded as 45-50 N. Further, the “Constante de complexation K1:1” value was 11 M⁻¹ in data set [2] and 173 M⁻¹ in data set [6]. Moreover, the “TAP (Ic^∗)” value in data set [3] is on record as > 20%; in data set [3] (listed as CD (monomère)) it was 23,1%. Besides, in data set [3] (powder of βCD polymer fractions), the Ecoulement result is “Non Libre”. In data set [4], the “valeur maximale de prise d'eau” value is recorded as 0,18 g/g. Besides, the “Temps de désagrégation” value in data set [5] is > 30 min.
